Common to all, as to format: in vivo
For experiment [1], the system named is wheat (Triticum aestivum). Description: Test A postemergence. As to conditions: Triticum aestivum, post-emergence, 240 h, read-out: Plant response rating, Wheat; for plant injury at 125 g/ha: 125 g ai/ha, Postemergence, visual injury after approximately 10 d, 0 to 100 scale where 0 is no effect and 100 is complete control. A digest of the protocol:
(§1)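 Visual injury, scored on a 0–100 scale relative to untreated controls, was recorded about 10 d after application. Treatments were a preemergence soil spray over planted seeds or a postemergence spray on plants at the one- to two-leaf stage, 2 to 10 cm tall, all in loam soil–sand blend in the greenhouse.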

Experiment [2] deals with blackgrass (Alopecurus myosuroides). Description: Test A postemergence. As to conditions: Alopecurus myosuroides, post-emergence, 240 h, read-out: Plant response rating, Blackgrass; for pest or weed control at 125 g/ha: 125 g ai/ha, Postemergence, visual injury after approximately 10 d, 0 to 100 scale where 0 is no effect and 100 is complete control. The procedure, abridged: as §1

Experiment [3] deals with ryegrass, Italian (Italian ryegrass, Lolium multiflorum). Description: Test A postemergence. To be noted: Lolium multiflorum, post-emergence, 240 h, read-out: Plant response rating, Ryegrass, Italian; for pest or weed control at 125 g/ha: 125 g ai/ha, Postemergence, visual injury after approximately 10 d, 0 to 100 scale where 0 is no effect and 100 is complete control. A digest of the protocol:
as §1

Experiment [4] concerns giant foxtail (Setaria faberii). The experiment is described as follows: Test A postemergence. To be noted: Setaria faberi, post-emergence, 240 h, read-out: Plant response rating, Foxtail, Giant; for pest or weed control at 125 g/ha: 125 g ai/ha, Postemergence, visual injury after approximately 10 d, 0 to 100 scale where 0 is no effect and 100 is complete control. A digest of the protocol:
as §1

Experiment [5] relates to Kochia (Kochia scoparia). Description: Test A postemergence. To be noted: Bassia scoparia, post-emergence, 240 h, read-out: Plant response rating, Kochia; for pest or weed control at 125 g/ha: 125 g ai/ha, Postemergence, visual injury after approximately 10 d, 0 to 100 scale where 0 is no effect and 100 is complete control. The procedure, abridged:
as §1

The next experiment has as its system corn (Zea mays). Description: Test A postemergence. As to conditions: Zea mays, post-emergence, 240 h; for Corn plant response rating (crop injury, 0 = no effect, 100 = complete kill) at 125 g/ha: 125 g ai/ha, Postemergence, visual injury after approximately 10 d, 0 to 100 scale where 0 is no effect and 100 is complete control. A digest of the protocol: as §1
The test system of experiment [6] is Galium (catchweed bedstraw, Galium aparine). The experiment is described as follows: Test A postemergence. To be noted: Galium, post-emergence, 240 h, read-out: Plant response rating, Galium; for pest or weed control at 125 g/ha: 125 g ai/ha, Postemergence, visual injury after approximately 10 d, 0 to 100 scale where 0 is no effect and 100 is complete control. The procedure, abridged: as §1

The test system of experiment [7] is barnyardgrass (Echinochloa crus-galli). The experiment is described as follows: Test A postemergence. As to conditions: Echinochloa crus-galli, post-emergence, 240 h, read-out: Plant response rating, Barnyardgrass; for pest or weed control at 125 g/ha: 125 g ai/ha, Postemergence, visual injury after approximately 10 d, 0 to 100 scale where 0 is no effect and 100 is complete control. The procedure, abridged: as §1

Experiment [8] deals with ragweed (common ragweed, Ambrosia elatior). Description: Test A postemergence. As to conditions: Ambrosia artemisiifolia, post-emergence, 240 h, read-out: Plant response rating, Ragweed; for pest or weed control at 125 g/ha: 125 g ai/ha, Postemergence, visual injury after approximately 10 d, 0 to 100 scale where 0 is no effect and 100 is complete control. A digest of the protocol: as §1

The test system of experiment [9] is ryegrass, Italian (Italian ryegrass, Lolium multiflorum). Description: Test A preemergence. As to conditions: Lolium multiflorum, pre-emergence, 240 h; for pest or weed control at 125 g/ha: 125 g ai/ha, Preemergence, visual injury rating after approximately 10 d, read-out: Ryegrass, Italian plant response rating (0 to 100 scale, 0 is no effect, 100 is complete control); for pest or weed control at 500 g/ha: 500 g ai/ha, preemergence, visual injury rating about 10 d after treatment, 0 to 100 scale (0 no effect, 100 complete control), read-out: Ryegrass, Italian plant response rating. The procedure, abridged:
as §1

For experiment [10], the system named is giant foxtail (Setaria faberii). The experiment is described as follows: Test A preemergence. As to conditions: Setaria faberi, pre-emergence, 240 h; for pest or weed control at 125 g/ha: 125 g ai/ha, Preemergence, visual injury rating after approximately 10 d, read-out: Foxtail, Giant plant response rating (0 to 100 scale, 0 is no effect, 100 is complete control); for pest or weed control at 500 g/ha: 500 g ai/ha, preemergence, visual injury rating about 10 d after treatment, 0 to 100 scale (0 no effect, 100 complete control), read-out: Foxtail, Giant plant response rating. A digest of the protocol: as §1

For experiment [11], the system named is Kochia (Kochia scoparia). The experiment is described as follows: Test A preemergence. To be noted: Bassia scoparia, pre-emergence, 240 h; for pest or weed control at 125 g/ha: 125 g ai/ha, Preemergence, visual injury rating after approximately 10 d, read-out: Kochia plant response rating (0 to 100 scale, 0 is no effect, 100 is complete control); for pest or weed control at 500 g/ha: 500 g ai/ha, preemergence, visual injury rating about 10 d after treatment, 0 to 100 scale (0 no effect, 100 complete control), read-out: Kochia plant response rating. The procedure, abridged: as §1

For experiment [12], the system named is pigweed (Amaranthus retroflexus). Description: Test A preemergence. As to conditions: Amaranthus retroflexus, pre-emergence, 240 h; for pest or weed control at 125 g/ha: 125 g ai/ha, Preemergence, visual injury rating after approximately 10 d, read-out: Pigweed plant response rating (0 to 100 scale, 0 is no effect, 100 is complete control); for pest or weed control at 500 g/ha: 500 g ai/ha, preemergence, visual injury rating about 10 d after treatment, 0 to 100 scale (0 no effect, 100 complete control), read-out: Pigweed plant response rating.

Experiment [13] deals with barnyardgrass (Echinochloa crus-galli). Description: Test A preemergence. As to conditions: Echinochloa crus-galli, pre-emergence, 240 h; for pest or weed control at 125 g/ha: 125 g ai/ha, Preemergence, visual injury rating after approximately 10 d, read-out: Barnyardgrass plant response rating (0 to 100 scale, 0 is no effect, 100 is complete control); for pest or weed control at 500 g/ha: 500 g ai/ha, preemergence, visual injury rating about 10 d after treatment, 0 to 100 scale (0 no effect, 100 complete control), read-out: Barnyardgrass plant response rating. A digest of the protocol: as §1

Experiment [14] deals with ragweed (common ragweed, Ambrosia elatior). The experiment is described as follows: Test A preemergence. To be noted: Ambrosia artemisiifolia, pre-emergence, 240 h; for pest or weed control at 125 g/ha: 125 g ai/ha, Preemergence, visual injury rating after approximately 10 d, read-out: Ragweed plant response rating (0 to 100 scale, 0 is no effect, 100 is complete control); for pest or weed control at 500 g/ha: 500 g ai/ha, preemergence, visual injury rating about 10 d after treatment, 0 to 100 scale (0 no effect, 100 complete control), read-out: Ragweed plant response rating. The procedure, abridged:
as §1

Setting [15] is: 500 g ai/ha, postemergence, visual injury, 0 to 100 scale (0 no effect, 100 complete control), approx. 10 d.

With `Cc1cc([C@H]2CN(C)C(=O)[C@@H]2C(=O)Nc2cccc(F)c2F)cc(C)c1Br` [Compound 1024], the plant injury at 125 g/ha in experiment [1] is 0%. Besides, the plant injury at 500 g/ha in [1] (setting [15]) came out at 30%. The pest or weed control at 125 g/ha is 0% in experiment [2]; 30% in experiment [3]; 70% in experiment [4]; 50% with Kochia (Kochia scoparia) [5]; 60% in [6]; 90% in [7]. Moreover, the pest or weed control at 125 g/ha in experiment [8] turned out to be 0%; in experiment [9] it was 0%; in experiment [10], 90%; in the experiment on Kochia (Kochia scoparia) [11], 30%; in experiment [12], 30%; in experiment [13] it was 70%. In [14], the pest or weed control at 125 g/ha was 0%. The pest or weed control at 500 g/ha in [2] (setting [15]) turned out to be 20%; in [3] (setting [15]) it was 30%; in experiment [4] (setting [15]), 90%; in the experiment on Kochia (Kochia scoparia) [5] (setting [15]), 60%; in experiment [6] (setting [15]), 60%; in experiment [7] (setting [15]), 90%. In addition, the pest or weed control at 500 g/ha in experiment [8] (setting [15]) came to 0%; in experiment [9], 90%; in experiment [10], 90%; with Kochia (Kochia scoparia) [11] it was 40%; in experiment [12], 50%; in experiment [13], 90%. The pest or weed control at 500 g/ha in experiment [14] stood at 30%. The Corn plant response rating (crop injury, 0 = no effect, 100 = complete kill) at 125 g/ha in the experiment on corn (Zea mays) worked out at 70%. In the experiment with corn (Zea mays) (setting [15]), this molecule returned a Corn plant response rating (crop injury, 0 = no effect, 100 = complete kill) at 500 g/ha of 70%.
Regarding `CC(C)COc1cccc([C@H]2CNC(=O)[C@@H]2C(=O)Nc2ccc(F)cc2F)c1` [Compound 966], the plant injury at 125 g/ha in experiment [1] was 0%. Moreover, the pest or weed control at 125 g/ha is 20% in [2]; 0% in experiment [3]; 40% in experiment [4]; 0% with Kochia (Kochia scoparia) [5]; 20% in experiment [6]; 60% in [7]. The pest or weed control at 125 g/ha was 0% in experiment [8]; 20% in [9]; 80% in [10]; 30% in the experiment with Kochia (Kochia scoparia) [11]; 0% in experiment [12]; 80% in experiment [13]. Moreover, the pest or weed control at 125 g/ha in experiment [14] was 0%. The Corn plant response rating (crop injury, 0 = no effect, 100 = complete kill) at 125 g/ha in the experiment with corn (Zea mays) worked out at 0%. Moreover, the pest or weed control at 500 g/ha in [9] worked out at 60%; in experiment [10] it was 90%; with Kochia (Kochia scoparia) [11] it was 30%; in experiment [12], 0%; in experiment [13], 90%; in experiment [14], 0%.
`Cc1ccc([C@H]2CNC(=S)[C@@H]2C(=O)Nc2ccccc2F)cc1` (racemic) [Compound 945]: the plant injury at 125 g/ha in [1] was 0%. Also, the pest or weed control at 125 g/ha was found to be 0% in experiment [2]; 0% in [3]; 0% in [4]; 0% in the experiment on Kochia (Kochia scoparia) [5]; 20% in experiment [6]; 80% in experiment [7]. Also, the pest or weed control at 125 g/ha in experiment [8] worked out at 0%; in experiment [9] it was 0%; in experiment [10], 0%; in the experiment on Kochia (Kochia scoparia) [11], 0%; in experiment [12], 0%; in experiment [13], 60%. Besides, in experiment [14], the pest or weed control at 125 g/ha was determined as 0%. Moreover, the Corn plant response rating (crop injury, 0 = no effect, 100 = complete kill) at 125 g/ha with corn (Zea mays) was 0%. Besides, the pest or weed control at 500 g/ha in [9] came to 0%; in [10] it was 70%; in the experiment on Kochia (Kochia scoparia) [11], 0%; in experiment [12], 0%; in experiment [13], 90%; in experiment [14] it was 0%.

The values above are taken from patent publication US12077503B2, “Substituted cyclic amides and their use as herbicides” (FMC CORPORATION, priority 2015, dated 2024).
